Measurements published in patent publication US10835533B2, “1 -((3S,4R)-4-(3-fluorophenyl)-1-(2-methoxyethyl)pyrrolidin-3-yl)-3-(4-methyl-3-(2-methylpyrimidin-5-yl)-1-phenyl-1H-pyrazol-5-yl)urea as a TrkA kinase inhibitor” (Array BioPharma Inc., priority 2014, dated 2020).

Tests used:
Assay in all cases: KinaseProfiler kinase profiling
Assay type in all cases: biochemical
Details in all cases: 10 μM, ATP near Km
BTK = biological target: T1, BTK (Homo sapiens, UniProt Q06187)
T1 construct: purchased Millipore, Inc. (KinaseProfiler service)
In short: (§1)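 Mean of two replicates, shown as POC. Conditions: 10 μM compound, kinase-specific ATP approximately at Km.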

BrSK2 = biological target: T2, BrSK2 (Homo sapiens, UniProt Q8IWQ3)
T2 construct: purchased Millipore, Inc. (KinaseProfiler service)
In short: as §1

CAMK1d = biological target: T3, CAMK1d (Homo sapiens, UniProt Q8IU85)
T3 construct: purchased Millipore, Inc. (KinaseProfiler service)
In short: as §1

CAMK4 = biological target: T4, CAMK4 (Homo sapiens, UniProt Q16566)
T4 construct: purchased Millipore, Inc. (KinaseProfiler service)
In short: as §1

CK1gamma1 = biological target: T5, CK1gamma1 (Homo sapiens, UniProt Q9HCP0)
T5 construct: purchased Millipore, Inc. (KinaseProfiler service)
In short: as §1

DAPK2 = biological target: T6, DAPK2 (Homo sapiens, UniProt Q9UIK4)
T6 construct: purchased Millipore, Inc. (KinaseProfiler service)
T6 sequence (Q9UIK4 whole entry): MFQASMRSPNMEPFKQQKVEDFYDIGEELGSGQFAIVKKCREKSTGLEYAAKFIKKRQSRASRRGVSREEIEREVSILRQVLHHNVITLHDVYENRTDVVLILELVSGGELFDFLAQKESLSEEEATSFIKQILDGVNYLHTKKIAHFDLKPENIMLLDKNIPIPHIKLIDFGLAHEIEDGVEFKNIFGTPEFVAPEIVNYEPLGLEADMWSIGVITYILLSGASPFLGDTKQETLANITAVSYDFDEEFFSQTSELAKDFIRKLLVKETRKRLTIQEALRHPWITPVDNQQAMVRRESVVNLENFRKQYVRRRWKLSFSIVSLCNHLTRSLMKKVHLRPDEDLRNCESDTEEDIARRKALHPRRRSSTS
In short: as §1

DYRK2 = biological target: T7, DYRK2 (Homo sapiens, UniProt Q92630)
T7 construct: purchased Millipore, Inc. (KinaseProfiler service)
In short: as §1

EphB4 = biological target: T8, EphB4 (Homo sapiens, UniProt P54760)
T8 construct: purchased Millipore, Inc. (KinaseProfiler service)
In short: as §1

ErbB4 = biological target: T9, ErbB4 (Homo sapiens, UniProt Q15303)
T9 construct: purchased Millipore, Inc. (KinaseProfiler service)
In short: as §1

FAK = biological target: T10, FAK (Homo sapiens, UniProt Q05397)
T10 construct: purchased Millipore, Inc. (KinaseProfiler service)
In short: as §1

Fms = biological target: T11, Fms (Homo sapiens, UniProt P07333)
T11 construct: purchased Millipore, Inc. (KinaseProfiler service)
T11 sequence (P07333 20-972): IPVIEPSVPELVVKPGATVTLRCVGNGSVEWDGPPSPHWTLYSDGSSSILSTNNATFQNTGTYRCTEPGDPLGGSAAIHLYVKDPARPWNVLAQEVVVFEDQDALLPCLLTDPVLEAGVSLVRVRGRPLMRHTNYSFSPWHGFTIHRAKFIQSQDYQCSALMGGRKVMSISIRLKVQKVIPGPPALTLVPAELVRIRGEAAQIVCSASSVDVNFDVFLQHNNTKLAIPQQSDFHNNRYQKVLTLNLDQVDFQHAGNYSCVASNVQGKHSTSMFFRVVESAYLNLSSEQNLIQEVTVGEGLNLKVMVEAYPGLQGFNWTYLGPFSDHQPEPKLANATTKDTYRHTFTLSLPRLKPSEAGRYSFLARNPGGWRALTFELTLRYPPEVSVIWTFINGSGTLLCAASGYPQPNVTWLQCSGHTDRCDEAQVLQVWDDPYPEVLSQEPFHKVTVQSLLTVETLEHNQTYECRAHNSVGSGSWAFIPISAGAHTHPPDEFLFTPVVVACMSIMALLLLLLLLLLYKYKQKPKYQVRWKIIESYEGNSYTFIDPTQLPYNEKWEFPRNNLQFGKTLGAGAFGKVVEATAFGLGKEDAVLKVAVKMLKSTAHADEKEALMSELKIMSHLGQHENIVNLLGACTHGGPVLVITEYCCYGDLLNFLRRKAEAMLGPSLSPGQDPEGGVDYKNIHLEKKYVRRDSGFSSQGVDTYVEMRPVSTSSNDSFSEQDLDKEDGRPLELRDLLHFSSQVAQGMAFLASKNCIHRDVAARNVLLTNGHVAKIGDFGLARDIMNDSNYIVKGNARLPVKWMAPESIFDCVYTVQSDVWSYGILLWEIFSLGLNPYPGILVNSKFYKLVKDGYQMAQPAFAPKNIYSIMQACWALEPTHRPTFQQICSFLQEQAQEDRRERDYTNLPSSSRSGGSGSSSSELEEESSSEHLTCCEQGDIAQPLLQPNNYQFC
In short: as §1

JAK2 = biological target: T12, JAK2 (Homo sapiens, UniProt O60674)
T12 construct: purchased Millipore, Inc. (KinaseProfiler service)
T12 sequence (O60674 whole entry): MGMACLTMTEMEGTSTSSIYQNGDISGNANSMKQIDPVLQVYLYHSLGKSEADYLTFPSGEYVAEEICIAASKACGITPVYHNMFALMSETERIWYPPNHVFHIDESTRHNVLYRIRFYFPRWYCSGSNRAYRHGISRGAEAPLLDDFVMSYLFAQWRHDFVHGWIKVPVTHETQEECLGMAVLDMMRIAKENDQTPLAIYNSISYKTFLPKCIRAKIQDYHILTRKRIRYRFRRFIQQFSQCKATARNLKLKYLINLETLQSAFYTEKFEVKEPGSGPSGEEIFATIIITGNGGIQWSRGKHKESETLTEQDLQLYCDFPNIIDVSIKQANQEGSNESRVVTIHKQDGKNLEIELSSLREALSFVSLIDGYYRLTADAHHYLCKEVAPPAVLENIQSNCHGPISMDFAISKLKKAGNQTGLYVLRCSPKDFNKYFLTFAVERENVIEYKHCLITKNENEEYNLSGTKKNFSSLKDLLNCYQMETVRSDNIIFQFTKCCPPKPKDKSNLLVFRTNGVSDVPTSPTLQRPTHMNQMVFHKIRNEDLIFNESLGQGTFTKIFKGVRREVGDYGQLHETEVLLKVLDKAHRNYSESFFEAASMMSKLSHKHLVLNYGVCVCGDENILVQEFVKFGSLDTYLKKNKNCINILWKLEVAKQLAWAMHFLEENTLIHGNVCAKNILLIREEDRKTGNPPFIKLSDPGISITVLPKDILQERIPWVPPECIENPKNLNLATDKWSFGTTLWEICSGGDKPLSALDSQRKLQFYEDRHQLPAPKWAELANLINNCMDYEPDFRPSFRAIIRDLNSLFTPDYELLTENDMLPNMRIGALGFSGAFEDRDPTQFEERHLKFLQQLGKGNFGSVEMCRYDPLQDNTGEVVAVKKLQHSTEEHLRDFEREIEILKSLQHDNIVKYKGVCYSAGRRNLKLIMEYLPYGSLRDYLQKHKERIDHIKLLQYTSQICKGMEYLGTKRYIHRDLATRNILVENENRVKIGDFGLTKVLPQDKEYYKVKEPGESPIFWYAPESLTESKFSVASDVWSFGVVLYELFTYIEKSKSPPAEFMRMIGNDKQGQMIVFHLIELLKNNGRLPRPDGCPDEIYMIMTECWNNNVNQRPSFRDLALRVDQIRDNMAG
In short: as §1

LIMK1 = biological target: T13, LIMK1 (Homo sapiens, UniProt P53667)
T13 construct: purchased Millipore, Inc. (KinaseProfiler service)
In short: as §1

Lck = biological target: T14, Lck (Homo sapiens, UniProt P06239)
T14 construct: purchased Millipore, Inc. (KinaseProfiler service)
In short: as §1

MAPKAP-K3 = biological target: T15, MAPKAP-K3 (Homo sapiens, UniProt Q16644)
T15 construct: purchased Millipore, Inc. (KinaseProfiler service)
In short: as §1

MELK = biological target: T16, MELK (Homo sapiens, UniProt Q14680)
T16 construct: purchased Millipore, Inc. (KinaseProfiler service)
In short: as §1

MKK4_m = biological target: T17, MKK4_m (Mus musculus, UniProt P47809)
T17 construct: purchased Millipore, Inc. (KinaseProfiler service)
In short: as §1

MKK7 = biological target: T18, MKK7 (Homo sapiens, UniProt O14733)
T18 construct: purchased Millipore, Inc. (KinaseProfiler service)
In short: as §1

MLK1 = biological target: T19, MLK1 (Homo sapiens, UniProt P80192)
T19 construct: purchased Millipore, Inc. (KinaseProfiler service)
T19 sequence (P80192 whole entry): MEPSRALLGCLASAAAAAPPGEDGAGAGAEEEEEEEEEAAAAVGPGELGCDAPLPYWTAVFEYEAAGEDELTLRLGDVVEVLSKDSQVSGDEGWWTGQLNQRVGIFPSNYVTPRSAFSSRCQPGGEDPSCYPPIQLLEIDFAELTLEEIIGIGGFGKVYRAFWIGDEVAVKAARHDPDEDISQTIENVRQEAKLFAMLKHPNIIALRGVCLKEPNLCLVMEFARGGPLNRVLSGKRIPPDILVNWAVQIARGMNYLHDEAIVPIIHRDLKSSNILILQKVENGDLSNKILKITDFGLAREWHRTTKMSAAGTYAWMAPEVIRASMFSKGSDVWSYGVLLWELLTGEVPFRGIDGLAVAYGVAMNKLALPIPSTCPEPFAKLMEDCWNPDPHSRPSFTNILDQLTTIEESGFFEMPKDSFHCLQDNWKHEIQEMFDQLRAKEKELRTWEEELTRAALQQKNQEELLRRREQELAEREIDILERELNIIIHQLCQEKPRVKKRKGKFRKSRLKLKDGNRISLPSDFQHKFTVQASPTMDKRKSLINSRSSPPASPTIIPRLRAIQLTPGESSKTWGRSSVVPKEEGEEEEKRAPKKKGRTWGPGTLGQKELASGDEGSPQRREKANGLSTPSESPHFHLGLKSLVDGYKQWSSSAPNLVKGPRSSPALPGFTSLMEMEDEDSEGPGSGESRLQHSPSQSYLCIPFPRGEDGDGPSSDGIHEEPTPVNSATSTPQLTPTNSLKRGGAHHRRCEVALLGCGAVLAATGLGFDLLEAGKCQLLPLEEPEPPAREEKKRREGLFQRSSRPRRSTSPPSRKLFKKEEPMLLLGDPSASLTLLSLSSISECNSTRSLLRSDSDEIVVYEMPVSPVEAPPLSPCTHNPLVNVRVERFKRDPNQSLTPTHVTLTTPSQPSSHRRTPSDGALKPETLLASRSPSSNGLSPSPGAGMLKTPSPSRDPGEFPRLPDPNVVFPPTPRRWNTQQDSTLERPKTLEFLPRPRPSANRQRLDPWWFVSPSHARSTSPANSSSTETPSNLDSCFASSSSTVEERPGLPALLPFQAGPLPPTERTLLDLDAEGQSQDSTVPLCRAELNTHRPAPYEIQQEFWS
In short: as §1

MSK1 = biological target: T20, MSK1 (Homo sapiens, UniProt O75582)
T20 construct: purchased Millipore, Inc. (KinaseProfiler service)
In short: as §1

MSSK1 = biological target: T21, MSSK1 (Homo sapiens, UniProt Q9UPE1)
T21 construct: purchased Millipore, Inc. (KinaseProfiler service)
In short: as §1

MST2 = biological target: T22, MST2 (Homo sapiens, UniProt Q13188)
T22 construct: purchased Millipore, Inc. (KinaseProfiler service)
In short: as §1

MYLK = biological target: T23, MYLK (Homo sapiens, UniProt Q15746)
T23 construct: purchased Millipore, Inc. (KinaseProfiler service)
In short: as §1

PAK5 = biological target: T24, PAK5 (Homo sapiens, UniProt Q9P286)
T24 construct: purchased Millipore, Inc. (KinaseProfiler service)
In short: as §1

PASK = biological target: T25, PASK (Homo sapiens, UniProt Q96RG2)
T25 construct: purchased Millipore, Inc. (KinaseProfiler service)
In short: as §1

PDGFRalpha = biological target: T26, PDGFRalpha (Homo sapiens, UniProt P16234)
T26 construct: purchased Millipore, Inc. (KinaseProfiler service)
In short: as §1

PDGFRbeta = biological target: T27, PDGFRbeta (Homo sapiens, UniProt P09619)
T27 construct: purchased Millipore, Inc. (KinaseProfiler service)
In short: as §1

PKCgamma = biological target: T28, PKCgamma (Homo sapiens, UniProt P05129)
T28 construct: purchased Millipore, Inc. (KinaseProfiler service)
In short: as §1

PKCiota = biological target: T29, PKCiota (Homo sapiens, UniProt P41743)
T29 construct: purchased Millipore, Inc. (KinaseProfiler service)
In short: as §1

PKCtheta = biological target: T30, PKCtheta (Homo sapiens, UniProt Q04759)
T30 construct: purchased Millipore, Inc. (KinaseProfiler service)
In short: as §1

PKD2 = biological target: T31, PKD2 (Homo sapiens, UniProt Q9BZL6)
T31 construct: purchased Millipore, Inc. (KinaseProfiler service)
In short: as §1

PRKG1alpha = biological target: T32, PRKG1alpha (Homo sapiens, UniProt Q13976)
T32 construct: purchased Millipore, Inc. (KinaseProfiler service)
In short: as §1

PhKgamma2 = biological target: T33, PhKgamma2 (Homo sapiens, UniProt P15735)
T33 construct: purchased Millipore, Inc. (KinaseProfiler service)
In short: as §1

Pim-2 = biological target: T34, Pim-2 (Homo sapiens, UniProt Q9P1W9)
T34 construct: purchased Millipore, Inc. (KinaseProfiler service)
In short: as §1

Plk1 = biological target: T35, Plk1 (Homo sapiens, UniProt P53350)
T35 construct: purchased Millipore, Inc. (KinaseProfiler service)
In short: as §1

Plk2 = biological target: T36, Plk2 (Homo sapiens, UniProt Q9NYY3)
T36 construct: purchased Millipore, Inc. (KinaseProfiler service)
In short: as §1

SGK1 = biological target: T37, SGK1 (Homo sapiens, UniProt O00141)
T37 construct: purchased Millipore, Inc. (KinaseProfiler service)
T37 sequence (O00141 whole entry): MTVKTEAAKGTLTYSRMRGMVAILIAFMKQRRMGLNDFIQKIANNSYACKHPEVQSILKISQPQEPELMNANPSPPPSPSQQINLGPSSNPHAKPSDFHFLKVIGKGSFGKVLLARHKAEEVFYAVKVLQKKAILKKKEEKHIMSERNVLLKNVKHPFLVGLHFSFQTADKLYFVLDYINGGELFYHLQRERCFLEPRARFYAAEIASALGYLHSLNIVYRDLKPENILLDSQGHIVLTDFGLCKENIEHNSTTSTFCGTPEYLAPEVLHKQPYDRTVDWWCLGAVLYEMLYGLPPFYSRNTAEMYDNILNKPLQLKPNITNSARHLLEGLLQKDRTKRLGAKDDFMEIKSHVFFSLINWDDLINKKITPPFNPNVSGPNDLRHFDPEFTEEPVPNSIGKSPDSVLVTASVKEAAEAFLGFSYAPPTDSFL
In short: as §1

STK33 = biological target: T38, STK33 (Homo sapiens, UniProt Q9BYT3)
T38 construct: purchased Millipore, Inc. (KinaseProfiler service)
In short: as §1

ZAP-70 = biological target: T39, ZAP-70 (Homo sapiens, UniProt P43403)
T39 construct: purchased Millipore, Inc. (KinaseProfiler service)
T39 sequence (P43403 whole entry): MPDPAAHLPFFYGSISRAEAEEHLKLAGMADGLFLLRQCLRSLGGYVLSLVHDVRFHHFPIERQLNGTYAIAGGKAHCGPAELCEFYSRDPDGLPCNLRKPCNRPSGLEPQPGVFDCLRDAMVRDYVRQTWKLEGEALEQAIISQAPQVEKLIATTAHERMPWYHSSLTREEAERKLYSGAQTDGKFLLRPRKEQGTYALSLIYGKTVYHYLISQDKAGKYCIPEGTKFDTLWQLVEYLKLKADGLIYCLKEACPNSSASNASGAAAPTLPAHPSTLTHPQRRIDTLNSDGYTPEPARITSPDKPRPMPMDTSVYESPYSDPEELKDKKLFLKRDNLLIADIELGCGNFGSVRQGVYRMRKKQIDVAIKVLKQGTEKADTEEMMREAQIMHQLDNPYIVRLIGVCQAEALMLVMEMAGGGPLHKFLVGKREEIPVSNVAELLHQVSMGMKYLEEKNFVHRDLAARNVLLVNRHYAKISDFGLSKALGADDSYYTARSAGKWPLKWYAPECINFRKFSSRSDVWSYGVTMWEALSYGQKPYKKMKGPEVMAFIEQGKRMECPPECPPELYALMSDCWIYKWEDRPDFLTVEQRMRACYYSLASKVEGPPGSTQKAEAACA
In short: as §1

p38delta = biological target: T40, p38delta (Homo sapiens, UniProt O15264)
T40 construct: purchased Millipore, Inc. (KinaseProfiler service)
T40 sequence (O15264 whole entry): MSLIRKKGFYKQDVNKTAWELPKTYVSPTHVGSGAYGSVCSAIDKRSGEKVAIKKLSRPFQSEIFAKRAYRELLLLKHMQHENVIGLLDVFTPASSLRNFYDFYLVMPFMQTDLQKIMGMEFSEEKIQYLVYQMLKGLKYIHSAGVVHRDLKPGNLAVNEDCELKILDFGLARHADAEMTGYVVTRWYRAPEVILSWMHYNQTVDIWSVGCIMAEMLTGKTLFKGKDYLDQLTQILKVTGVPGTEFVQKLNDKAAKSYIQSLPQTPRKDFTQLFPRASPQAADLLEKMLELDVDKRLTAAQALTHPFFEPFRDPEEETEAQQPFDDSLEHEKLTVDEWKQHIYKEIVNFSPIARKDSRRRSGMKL
In short: as §1

p70S6K = biological target: T41, p70S6K (Homo sapiens, UniProt P23443)
T41 construct: purchased Millipore, Inc. (KinaseProfiler service)
In short: as §1

## COCCN1C[C@@H](NC(=O)Nc2c(C)c(-c3cnc(C)nc3)nn2-c2ccccc2)[C@H](c2cccc(F)c2)C1 [Compound 1, 1-((3S,4R)-4-(3-fluorophenyl)-1-(2-methoxyethyl)pyrrolidin-3-yl)-3-(4-methyl-3-(2-methylpyrimidin-5-yl)-1-phenyl-1H-pyrazol-5-yl)urea]
BTK
  Avg POC: 114 POC
BrSK2
  Avg POC: 104 POC
CAMK1d
  Avg POC: 130 POC
CAMK4
  Avg POC: 100 POC
CK1gamma1
  Avg POC: 78.5 POC
DAPK2
  Avg POC: 97 POC
DYRK2
  Avg POC: 102 POC
EphB4
  Avg POC: 102 POC
ErbB4
  Avg POC: 107.5 POC
FAK
  Avg POC: 100.5 POC
Fms
  Avg POC: 103 POC
JAK2
  Avg POC: 126 POC
LIMK1
  Avg POC: 98 POC
Lck
  Avg POC: 94 POC
MAPKAP-K3
  Avg POC: 99 POC
MELK
  Avg POC: 105.5 POC
MKK4_m
  Avg POC: 125 POC
MKK7
  Avg POC: 125 POC
MLK1
  Avg POC: 109.5 POC
MSK1
  Avg POC: 129 POC
MSSK1
  Avg POC: 127.5 POC
MST2
  Avg POC: 102 POC
MYLK
  Avg POC: 106.5 POC
PAK5
  Avg POC: 111 POC
PASK
  Avg POC: 137.5 POC
PDGFRalpha
  Avg POC: 96 POC
PDGFRbeta
  Avg POC: 96 POC
PKCgamma
  Avg POC: 98 POC
PKCiota
  Avg POC: 91 POC
PKCtheta
  Avg POC: 128.5 POC
PKD2
  Avg POC: 94.5 POC
PRKG1alpha
  Avg POC: 109.5 POC
PhKgamma2
  Avg POC: 108 POC
Pim-2
  Avg POC: 117.5 POC
Plk1
  Avg POC: 99.5 POC
Plk2
  Avg POC: 101 POC
SGK1
  Avg POC: 105 POC
STK33
  Avg POC: 101 POC
ZAP-70
  Avg POC: 104.5 POC
p38delta
  Avg POC: 105 POC
p70S6K
  Avg POC: 104 POC
